Laboratory results as given in patent US20240009239A1, “THERAPEUTIC TARGETING OF MESOTHELIN IN ACUTE MYELOID LEUKEMIA WITH CHIMERIC ANTIGEN RECEPTOR T CELL THERAPY” (FRED HUTCHINSON CANCER CENTER, priority 2020, published 2024).

How the values were obtained:
[1] = tested on: ADAM17-mediated MSLN shedding; assay: Cell surface mesothelin on Nomo-1 by flow cytometry after GM6001; format: cell-based; conditions: Nomo-1 cells, GM6001 50 uM, 48 hours, vs DMSO control
Method: Cell surface abundance and viability were measured by flow cytometry (FIG. 2A) and shed MSLN was quantified by ELISA (FIG. 2B). […] Data presented are mean tumor specific lysis+/−standard deviation from 3 technical replicates at indicated E:T ratios for 3 independent experiments. […] Secreted levels of IFN-g (left panel) and TNF-a (right panel) were measured after 8 hours of T cell/AML co-culture at E:T 10:1 by ELISA. Data presented are mean+/−standard deviation from 3 technical replicates. Statistical significance was determined by unpaired Student's t test, assuming unequal variances. p<0.05(*), p<0.005(**), p<0.0005(***).
Nomo-1 and Kasumi-1 were obtained from ATCC and maintained in RPMI with FBS (10% for Nomo-1, 20% for Kasumi-1) and L-glutamine (2 mM). […] The Kasumi-1 MSLN+ cell line was engineered by transducing Kasumi-1 cells with a lentivirus encoding MSLN driven by the ELF1a promoter.
For in vivo CAR T study, Nomo-1 cells, which express endogenous level of MSLN, and Kasumi-1 cells engineered to express MSLN with a lentivirus construct (Kasumi-1 MSLN+) were transplanted into NSG mice. Mock transduced MSLN-directed CAR T cells were infused 1 week (Nomo-1) and 2 weeks (Kasumi-1 MSLN+) following leukemic cell injection. Leukemic burden was measured by bioluminescence IVIS imaging weekly.

[2] = tested on: Nomo-1 cells; assay: Viability of Nomo-1 cells after GM6001 without CAR T cells; format: cell-based; conditions: GM6001 treatment, data not shown
Source text: FIGS. 2A-2D. […] FIGS. 2A-2B. […] FIG. 2C. […] FIG. 2D.
AML cell lines and GM6001 treatment.

Question: Which results are given for `CNC(=O)[C@H](Cc1c[nH]c2ccccc12)NC(=O)[C@@H](CC(=O)NO)CC(C)C` [GM6001]?
Answer: level of cell surface mesothelin [1]: increased; cell viability of Nomo-1 cells in the absence of CAR T cells [2]: did not significantly impact
